In US8106236B2, “Triaryl compounds and derivates thereof” (Ortho-McNeil Pharmaceutical, Inc., priority 2006, dated 2012):

What was measured:
γ-secretase = γ-secretase (Homo sapiens, UniProt P49768); test: Screening for γ-secretase-modulating activity, Aβ42 in SKNBE2 cells carrying APP 695 wild type; format: cell-based; conditions: read-out: WTAPP SKNBE2 Aβ 42% Inhibition at 3 μM
Protocol: Screening of the Compounds of the Invention for γ-Secretase-Modulating Activity
Cells were grown to near confluency.

Aβ42 [1] = test: In vivo Aβ42 lowering, mouse; conditions: oral dose 30 mpk at 4 hr time point, read-out: Mouse Efficacy % Lowering Aβ 42
Source text: (§1) To determine whether acute administration of an Aβ42 lowering agent would reduce Aβ42 levels in vivo, non-transgenic rodents, e.g. mice or rats can be used. Alternatively, two to three month old Tg2576 mice expressing APP695 containing the “Swedish” variant can be used or a transgenic mouse model developed by Dr. Fred Van Leuven (K.U.Leuven, Belgium) and co-workers, with neuron-specific expression of a clinical mutant of the human amyloid precursor protein [V717I] (Moechars et al., 1999 J. Biol. Chem. 274, 6483). […] Animals of this age have high levels of Aβ in the brain but no detectable Aβ deposition. Mice treated with the Aβ42 lowering agent will be examined and compared to those untreated or treated with vehicle and brain levels of soluble Aβ42 and total Aβ would be quantitated by standard techniques, for example, using ELISA. Treatment periods may vary from hours to days and will be adjusted based on the results of the Aβ42 lowering once a time course of onset of effect can be established.
(§2) A typical protocol for measuring Aβ42 lowering in vivo is shown but it is only one of many variations that could be used to optimize the levels of detectable Aβ. For example, aliquots of compounds can be dissolved in DMSO (volume equal to 1/10th of the final formulation volume), vortexed and further diluted (1:10) with a 10% (w/v) hydroxypropyl β cyclodextrin (HBC, Aldrich, Ref N° 33,260-7) solution in PBS, where after they are sonicated for 20 seconds.
(§3) Aβ42 lowering agents may be administered as a single oral dose given three to four hours before sacrifice and analysis or alternatively could be given over a course of days and the animals sacrificed three to four hours after the final dose is given.
(§4) Blood is collected at sacrifice. The blood collection is performed via a heart puncture during anesthesia with a mixture of Ketalar (Ketamin), Rompun (Xylazin 2%) and Atropin (2:1:1) and collected in EDTA treated collection tubes. Blood is centrifuged at 4000 g for 5 minutes at 4° C. and the plasma recovered for analysis.
(§5) The mice are anaesthetized with a mixture of Ketalar (Ketamin), Rompun (Xylazin 2%) and Atropin (2:1:1) and flushed trans-cardially with physiological serum at 4° C.
(§6) The brain is removed from the cranium and hindbrain and forebrain are separated with a cut in the coronal/frontal plane. The cerebellum is removed. The forebrain is divided evenly into left and right hemisphere by using a midline sagital cut.
(§7) One hemisphere is immediately immersed in liquid nitrogen and stored at −70° C. until homogenization for biochemical assays.
(§8) Brains are homogenized using a Potter, a glass tube (detergent free, 2 cm^3) and a mechanical homogenizer (650 rpm). A volume of 6.5×½ brain weight of freshly prepared 20 mM Tris/HCl buffer (pH 8.5) with Proteinase Inhibitors (1 tablet per 50 ml Tris/HCl buffer, Complete™, Roche, Mannheim, Germany) is used as homogenization buffer.
(§9) Samples are transferred from −70° C. into a sample holder with liquid nitrogen and each individual sample is pre-warmed by incubation on the bench for a few seconds prior to homogenization. The homogenates are collected in Beckman centrifuge tubes TLX and collected on ice prior to centrifugation. Between two samples, the Potter and the glass tube are rinsed carefully with distilled water without detergents and dried with absorption paper.
(§10) Samples are centrifuged in a pre-cooled ultracentrifuge (Beckman, Mannheim, Germany) for 1 hour and 20 minutes at 48000 rpm (135.000×g) at 4° C. The supernatant (soluble fraction containing secreted APP and amyloid peptides) is separated from the pellet (membrane fraction containing membrane-bound APP-fragments and plaque-associated amyloid peptides in case of aged mice).
(§11) Small reversed phase columns (C18-Sep-Pack Vac 3 cc cartridges, Waters, Mass., MA) are mounted on a vacuum system and washed with 80% acetonitrile in 0.1% Trifluoroacetic acid (A-TFA) followed with 0.1% TFA twice. […]

Aβ42 [2] = test: In vivo Aβ42 lowering, rat; conditions: oral dose 30 mpk at 4 hr time point
Source text: as §1, §2, §3, §4, §5, §6, §7, §8, §9, §10, §11

Compound | inhibition at 3 µM (γ-secretase) [%] | inhibition in vivo at 30 mg/kg (Aβ42 [1]) [%] | other results
CC(C)C[C@@H](C(=O)O)c1cc(-c2ccc(C(F)(F)F)cc2)cc(-c2cc(F)cc(F)c2)c1 [Compound 42, (R)-2-(3,5-Difluoro-4″-trifluoromethyl-[1,1′;3′,1″]terphenyl-5′-yl)-4-methyl-pentanoic acid] |  | 48 | 
CC(C)CC(C(=O)O)c1cc(-c2ccc(C(C)C)cc2)cc(-c2ccc(C(F)(F)F)cc2)c1 (centres unmarked) [Compound 4, 2-(4-Isopropyl-4″-trifluoromethyl-[1,1′;3′,1″]terphenyl-5′-yl)-4-methyl-pentanoic acid] |  | 30 | 
CC(C)C[C@H](C(=O)O)c1cc(-c2ccc(C(F)(F)F)cc2)cc(-c2cc(F)cc(F)c2)c1 [Compound 41, (S)-2-(3,5-Difluoro-4″-trifluoromethyl-[1,1′;3′,1″]terphenyl-5′-yl)-4-methyl-pentanoic acid] |  | 58 | 
CC(C)C[C@@H](C(=O)O)c1cc(-c2ccc(C(F)(F)F)cc2)cc(-c2ccc(C(F)(F)F)cc2)c1 [Compound 39, (R)-2-(4,4″-Bis-trifluoromethyl-[1,1′;3′,1″]terphenyl-5′-yl)-4-methyl-pentanoic acid] |  | 50 | Rat Efficacy % Lowering Aβ 42 (Aβ42 [2]): 27%
CC(C)C[C@@H](C(=O)O)c1cc(-c2ccc(OC(F)(F)F)cc2)cc(-c2ccc(C(F)(F)F)cc2)c1 [Compound 51, (R)-4-Methyl-2-(4-trifluoromethoxy-4″-trifluoromethyl-[1,1′;3′,1″]terphenyl-5′-yl)-pentanoic acid] |  | 50 | 
CC(C)CC(C(=O)O)c1cc(-c2ccc(C(F)(F)F)cc2)cc(-c2ccc(S(C)(=O)=O)cc2)c1 (centres unmarked) [Compound 21, 2-(4-Methanesulfonyl-4″-trifluoromethyl-[1,1′;3′,1″]terphenyl-5′-yl)-4-methyl-pentanoic acid] | 46 |  | 
CC(C)C[C@H](C(=O)O)c1cc(-c2ccc(C(F)(F)F)cc2)cc(-c2cc(C(F)(F)F)cc(C(F)(F)F)c2)c1 [Compound 43, (S)-4-Methyl-2-(3,5,4″-tris-trifluoromethyl-[1,1′;3′,1″]terphenyl-5′-yl)-pentanoic acid] |  | 40 | 
CC(C)CC(C(=O)O)c1cc(-c2cc(F)cc(F)c2)cc(-c2cc(F)cc(C(F)(F)F)c2)c1 (centres unmarked) [Compound 32, 4-Methyl-2-(3,5,3″-trifluoro-5″-trifluoromethyl-[1,1′;3′,1″]terphenyl-5′-yl)-pentanoic acid] | 80 |  | 
CC(C)C[C@@H](C(=O)O)c1cc(-c2ccc(C(F)(F)F)cc2)cc(-c2ccc(Cl)c(F)c2)c1 [Compound 47, (R)-2-(4-Chloro-3-fluoro-4″-trifluoromethyl-[1,1′;3′,1″]terphenyl-5′-yl)-4-methyl-pentanoic acid] |  | 45 | 
CC(C)CC(C(=O)O)c1cc(-c2ccc(C#N)cc2)cc(-c2cc(C(F)(F)F)cc(C(F)(F)F)c2)c1 (centres unmarked) [Compound 37, 2-(4-Cyano-3″,5″-bis-trifluoromethyl-[1,1′;3′,1″]terphenyl-5′-yl)-4-methyl pentanoic acid] | 84 |  | 
CC(C)CC(C(=O)O)c1cc(-c2ccc(C#N)cc2)cc(-c2ccc(C(F)(F)F)cc2)c1 (centres unmarked) [Compound 16, 2-(4-Cyano-4″-trifluoromethyl-[1,1′;3′,1″]terphenyl-5′-yl)-4-methyl-pentanoic acid] |  | 10 | 
CC(C)C[C@H](C(=O)O)c1cc(-c2ccc(OC(F)(F)F)cc2)cc(-c2ccc(C(F)(F)F)cc2)c1 [Compound 52, (S)-4-Methyl-2-(4-trifluoromethoxy-4″-trifluoromethyl-[1,1′;3′,1″]terphenyl-5′-yl)-pentanoic acid] |  | 48 | 
CC(C)CC(C(=O)O)c1cc(-c2ccc(C(F)(F)F)cc2)cc(-c2cccc(C(F)(F)F)c2)c1 (centres unmarked) [Compound 12, 2-(3,4″-Bis-trifluoromethyl-[1,1′;3′,1″]terphenyl-5′-yl)-4-methyl-pentanoic acid] | 86 |  | 
CC(C)CC(C(=O)O)c1cc(-c2cc(F)cc(F)c2)cc(-c2cc(F)cc(F)c2)c1 (centres unmarked) [Compound 38, 4-Methyl-2-(3,5,3″,5″-tetrafluoro-[1,1′;3′,1″]terphenyl-5′-yl)-pentanoic acid] | 53 |  | 
CC(C)CC(C(=O)O)c1cc(-c2ccc(C(F)(F)F)cc2)cc(-c2cc(F)cc(C#N)c2)c1 (centres unmarked) [Compound 36, 2-(5-Cyano-3-fluoro-4″-trifluoromethyl-[1,1′;3′,1″]terphenyl-5′-yl)-4-methyl-pentanoic acid] | 0 |  | 
C=C(C)CC(C(=O)O)c1cc(-c2ccc(C(F)(F)F)cc2)cc(-c2ccc(C(F)(F)F)cc2)c1 (centres unmarked) [Compound 25, 2-(4,4″-Bis-trifluoromethyl-[1,1′;3′,1″]terphenyl-5′-yl)-4-methyl-pent-4-enoic acid] | 82 |  | 
CC(C)CC(C(=O)O)c1cc(-c2cccc(C#N)c2)cc(-c2cc(C(F)(F)F)cc(C(F)(F)F)c2)c1 (centres unmarked) [Compound 34, 2-(3-Cyano-3″,5″-bis-trifluoromethyl-[1,1′;3′,1″]terphenyl-5′-yl)-4-methyl pentanoic acid] | 73 |  | 

More lines, main results first:

inhibition at 3 µM (γ-secretase) [%] | Compound | inhibition in vivo at 30 mg/kg (Aβ42 [1]) [%] | other results
-17 | CC(C)CC(C(=O)O)c1cc(-c2ccc(C(F)(F)F)cc2)cc(-c2cccc(N(C)C)c2)c1 (centres unmarked) [Compound 49, 2-(3-Dimethylamino-4″-trifluoromethyl-[1,1′;3′,1″]terphenyl-5′-yl)-4-methyl-pentanoic acid] |  | 
53 | COc1ccc(-c2cc(-c3ccc(C(F)(F)F)cc3)cc(C(CC(C)C)C(=O)O)c2)cc1 (centres unmarked) [Compound 24, 2-(4-Methoxy-4″-trifluoromethyl-[1,1′;3′,1″]terphenyl-5′-yl)-4-methyl-pentanoic acid] |  | 
84 | CC(C)CC(C(=O)O)c1cc(-c2ccc(C(F)(F)F)cc2)cc(-c2cc(Cl)ccc2Cl)c1 (centres unmarked) [Compound 23, 2-(2,5-Dichloro-4″-trifluoromethyl-[1,1′;3′,1″]terphenyl-5′-yl)-4-methyl-pentanoic acid] |  | 
18 | CC(=O)c1ccc(-c2cc(-c3ccc(C(F)(F)F)cc3)cc(C(CC(C)C)C(=O)O)c2)cc1 (centres unmarked) [Compound 48, 2-(4-Acetyl-4″-trifluoromethyl-[1,1′;3′,1″]terphenyl-5′-yl)-4-methyl-pentanoic acid] |  | 
53 | CC(C)CC(C(=O)O)c1cc(-c2ccc(C(F)(F)F)cc2)cc(-c2ccc(F)cc2F)c1 (centres unmarked) [Compound 2, 2-(2,4-Difluoro-4″-trifluoromethyl-[1,1′;3′,1″]terphenyl-5′-yl)-4-methyl-pentanoic acid] |  | 
-1 | CC(C)CC(C(=O)O)c1cc(-c2ccc(C(F)(F)F)cc2)cc(-c2ccccc2F)c1 (centres unmarked) [Compound 8, 2-(2-Fluoro-4″-trifluoromethyl-[1,1′;3′,1″]terphenyl-5′-yl)-4-methyl-pentanoic acid] |  | 
68 | Cc1ccc(-c2cc(-c3ccc(C(F)(F)F)cc3)cc(C(CC(C)C)C(=O)O)c2)cc1 (centres unmarked) [Compound 11, 4-Methyl-2-(4-methyl-4″-trifluoromethyl-[1,1′;3′,1″]terphenyl-5′-yl)-pentanoic acid] |  | 
65 | CC(C)CC(C(=O)O)c1cc(-c2ccc(C(F)(F)F)cc2)cc(-c2ccccc2C(F)(F)F)c1 (centres unmarked) [Compound 6, 2-(2,4″-Bis-trifluoromethyl-[1,1′;3′,1″]terphenyl-5′-yl)-4-methyl-pentanoic acid] |  | 
